# What was measured:
# MCF-7 cells = assay: MTT cell viability assay on MCF-7 breast cancer cells; assay type: cell-based, human; conditions: for IC50: ± SD
# Description: (§1) HeLa, MCF-7 and MDA-MB-231 cells were obtained from Sigma-Aldrich and maintained as reported previously. MRC-5, PC-3, DU 145 cells were purchased from American Type Culture Collection (ATCC, Manassas, VA, USA). PC-3 and DU 145 were maintained in RPMI medium (Sigma-Aldrich) whereas MRC-5 cells were maintained in DMEM medium (Sigma-Aldrich). All media were complemented with 10% Fetal bovine serum (FBS, Sigma-Aldrich) 2 mM L-glutamine, 0.01% streptomycin and 0.005% ampicillin (Sigma-Aldrich). Cells were cultured under standard conditions in a 37 °C incubator containing 5% CO2 in 95% humidity.
# (§2) Each test compound was dissolved in cell culture grade DMSO (Molar Chemicals, Halásztelek, Hungary) in a final concentration of […]. Antiproliferative action of the synthesized steroids was investigated by MTT assay. An amount of 5000 cells/well were seeded into 96 well plates. Twenty-four hours post seeding, all cell lines were treated with each compound in 10 and 30 μM concentrations for 72 hours. […] After 72 hours, cells were washed with PBS and incubated with culture medium containing 0.5 mg/mL MTT (3-(4, 5-dimethylthiazolyl-2)-2,5-diphenyltetrazolium bromide) reagent (SERVA, GmbH, Heidelberg, Germany) for an hour at 37 °C. Formazan crystals were solubilized in DMSO and extinction was measured at 570 nm using a Synergy HTX plate reader (BioTech-Hungary, Budapest, Hungary). MTT assays were performed at least three times using four independent biological replicates. Data were normalized to solvent controls and the graphical representation of the obtained data as well as the calculation of IC50 values were carried out by GraphPad Prism 7 software (GraphPad Software; San Diego, CA, USA).
# PC-3 cells [1] = assay: MTT cell viability assay on PC-3 prostate cancer cells; assay type: cell-based, human; conditions: for Mean values (%) of primary growth inhibitory screen (viability in %), PC-3 / IC50: 72 hours, MTT; for antiproliferative potency against PC-3 prostate cancer cells compared to MRC-5 non-cancerous fibroblasts: primary screen; for IC50: ± SD
# Description: as §1, §2
# DU 145 cells = assay: MTT cell viability assay on DU 145 prostate cancer cells; assay type: cell-based, human; conditions: for IC50: ± SD
# Description: as §1, §2
# Bax mRNA in PC-3 cells = assay: RT-qPCR of Bax mRNA; assay type: cell-based, human; conditions: PC-3, 48 h; 4e, 4j 5 µM; cisplatin 200 µM; GAPDH reference
# Description: (§3) PC-3 cells were seeded at 2 × 10^6 cells/well density in 6 well plates. On the following day cells were treated with 5 µM of either compound 4e or 4j or with 200 µM of cisplatin. Cells were collected 48-hours post-treatment and total cellular RNA was isolated using RNeasy® Mini Kit (QIAGEN, Hilden, Germany) according to the manufacturer’s recommendation. RNA (2 µg) was reverse transcribed (TaqMan® Reverse Transcription kit, Applied Biosystems, Foster City, CA, USA) in 50 µL total volume. PCR reactions were performed on PicoReal™ Real-time PCR (Thermo Scientific, Walthan, MA, USA) using SYBRGreen qPCR Master Mix (Thermo Scientific) with an input of 1 µL cDNA. Each primer (Table 3) was used at 200 nM concentration. Relative transcript levels were determined by the ΔΔCt analysis using GAPDH as reference gene. Experiments were repeated three times with three biological replicates.
# MRC-5 cells = assay: MTT cell viability assay on non-cancerous MRC-5 fibroblasts; assay type: cell-based; conditions: for Mean values (%) of primary growth inhibitory screen (viability in %), MRC-5 / IC50: 72 hours, MTT; for IC50: ± SD
# Description: as §1, §2
# [2] = test system: caspase 3 mRNA in PC-3 cells; assay: RT-qPCR of caspase 3 mRNA; assay type: cell-based, human; conditions: PC-3, 48 h; 4e, 4j 5 µM; cisplatin 200 µM; GAPDH reference
# Description: as §3
# MDA-MB-231 cells = assay: MTT cell viability assay on MDA-MB-231 breast cancer cells; assay type: cell-based, human; conditions: for IC50: ± SD
# Description: as §1, §2
# HeLa cells = assay: MTT cell viability assay on HeLa cervical cancer cells; assay type: cell-based, human; conditions: 72 hours; for IC50: ± SD
# Description: as §1, §2
# PC-3 cells [3] = assay: Annexin V/PI apoptosis detection assay (flow cytometry); assay type: cell-based, human; conditions: PC-3, 5 µM, 48-hour treatment
# Description: PC-3 cells were seeded at 2 × 10^6 cells/well density in 6-well plates. On the following day cells were treated with 5 µM of either compound 4e or 4j or with 200 µM of cisplatin (Accord Healthcare Ltd., Middlesex, UK). After 48-hour treatment, cells were collected and a Dead Cell Apoptosis Kit containing AnnexinV-FITC and propidium iodide (Life Technologies-Hungary, Budapest, Hungary) was used according to the manufacturer’s recommendation. Fluorescence intensities of at least 10,000 cells/sample were measured by FACSCalibur™ (BD Biosciences, Franklin Lakes, CA, USA) and data were analyzed by FlowJo V10 software (BD Biosciences, Franklin Lakes, NJ, USA). Experiments were repeated three times using triplicates.
SMILES,"Mean values (%) of primary growth inhibitory screen (viability in %), MCF-7 (MCF-7 cells; 10 µM, 72 hours)","Mean values (%) of primary growth inhibitory screen (viability in %), MCF-7 (MCF-7 cells; 30 µM, 72 hours)",IC50 (MCF-7 cells; 72 hours),"Mean values (%) of primary growth inhibitory screen (viability in %), PC-3 (PC-3 cells [1]; 10 µM)",antiproliferative potency against PC-3 prostate cancer cells compared to MRC-5 non-cancerous fibroblasts (PC-3 cells [1]; 10 µM),"Mean values (%) of primary growth inhibitory screen (viability in %), PC-3 (PC-3 cells [1]; 30 µM)",antiproliferative potency against PC-3 prostate cancer cells compared to MRC-5 non-cancerous fibroblasts (PC-3 cells [1]; 30 µM),IC50 (PC-3 cells [1]),"Mean values (%) of primary growth inhibitory screen (viability in %), DU 145 (DU 145 cells; 10 µM, 72 hours)","Mean values (%) of primary growth inhibitory screen (viability in %), DU 145 (DU 145 cells; 30 µM, 72 hours)",IC50 (DU 145 cells; 72 hours),Bax mRNA expression level compared to untreated control (Bax mRNA in PC-3 cells),"Mean values (%) of primary growth inhibitory screen (viability in %), MRC-5 (MRC-5 cells; 10 µM)","Mean values (%) of primary growth inhibitory screen (viability in %), MRC-5 (MRC-5 cells; 30 µM)",IC50 (MRC-5 cells),caspase 3 mRNA expression level compared to untreated control [2],"Mean values (%) of primary growth inhibitory screen (viability in %), MDA-MB-231 (MDA-MB-231 cells; 10 µM, 72 hours)","Mean values (%) of primary growth inhibitory screen (viability in %), MDA-MB-231 (MDA-MB-231 cells; 30 µM, 72 hours)","Mean values (%) of primary growth inhibitory screen (viability in %), HeLa (HeLa cells; 10 µM)","Mean values (%) of primary growth inhibitory screen (viability in %), HeLa (HeLa cells; 30 µM)",also measured
"Cc1c2c(nn1-c1ccc([N+](=O)[O-])cc1)CC1CCC3C4CCC(O)C4(C)CCC3C1(C)C2 (stereo not drawn) [4j, 17β-Hydroxy-1′-(4″-nitrophenyl)-5′-methylpyrazolo[3′,4′:3,2]-5α-androstane]",55.8%,49.6%,18.2 ± 3.9 µM,38.2%,significantly higher,41.6%,significantly higher,5.6 ± 1.1 µM,82.8%,60.4%,19.7 ± 1 µM,significantly increased,99.1%,99.8%,> 30 µM,significantly increased,83.8%,80.6%,60.5%,64.6%,IC50 (MDA-MB-231 cells; 72 hours): > 30 µM; IC50 (HeLa cells): > 30 µM; percentage of annexin V-positive cells (Q2 + Q3) (PC-3 cells [3]): 37.89%
"COc1ccc(-n2nc3c(c2C)C[C@@]2(C)[C@@H](CC[C@@H]4[C@@H]2CC[C@]2(C)[C@@H](O)CC[C@@H]42)C3)cc1 [4e, 17β-Hydroxy-1′-(4″-methoxyphenyl)-5′-methylpyrazolo[3′,4′:3,2]-5α-androstane]",20.9%,14.0%,5.5 ± 0.6 µM,28.4%,,10.8%,,4.2 ± 1.1 µM,23.3%,5.5%,3.6 ± 1.2 µM,significantly increased,71.2%,28.8%,8.6 ± 1.3 µM,significantly increased,35.2%,13.6%,31.7%,15.1%,"specificity in cancer cell toxicity (cancer cell lines vs MRC-5) (MRC-5 cells; primary screen, manifested already at 10 µM): utmost specificity; IC50 (MDA-MB-231 cells; 72 hours): 6.6 ± 0.9 µM; IC50 (HeLa cells): 8.5 ± 0.6 µM; percentage of annexin V-positive cells (Q2 + Q3) (PC-3 cells [3]): 33.96%"
"Cc1c2c(nn1-c1ccccc1)CC1CCC3C4CCC(O)C4(C)CCC3C1(C)C2 (stereo not drawn) [4a, 17β-Hydroxy-1′-phenyl-5′-methylpyrazolo[3′,4′:3,2]-5α-androstane]",57.1%,5.5%,,36.8%,significantly higher,3.2%,,,67.3%,1.5%,,,68.3%,1.2%,,,75.0%,32.1%,49.6%,46.7%,"IC50 (MCF-7 cells; Homo sapiens, MCF7, 72 hours): 12.9 ± 0.1 µM; IC50 (PC-3 cells [1]; Homo sapiens, PC-3): 5.6 ± 1.2 µM; IC50 (DU 145 cells; Homo sapiens, DU-145, 72 hours): 9.2 ± 1.2 µM; IC50 (MRC-5 cells; Homo sapiens, MRC5): 23.7 ± 2.3 µM; IC50 (MDA-MB-231 cells; Homo sapiens, MDA-MB-231, 72 hours): 15.3 ± 3.4 µM; melting point: 241 to 245 °C; IC50 (HeLa cells; Homo sapiens, HeLa): 16.9 ± 3.7 µM"
"COc1ccc(-n2nc3c(c2C)C[C@@]2(C)[C@@H](CC[C@@H]4[C@@H]2CC[C@]2(C)C(=O)CC[C@@H]42)C3)cc1 [5e, 1′-(4″-Methoxyphenyl)-5′-methylpyrazolo[3′,4′:3,2]-5α-androst-17-one]",53.5%,36.3%,,45.5%,,29.7%,significantly higher,,62.1%,48.1%,,,79.3%,79.3%,,,72.0%,61.5%,38.4%,41.8%,
"Cc1c2c(nn1-c1ccc(Br)cc1)C[C@@H]1CC[C@@H]3[C@H](CC[C@]4(C)[C@@H](O)CC[C@@H]34)[C@@]1(C)C2 [4h, 17β-Hydroxy-1′-(4″-bromophenyl)-5′-methylpyrazolo[3′,4′:3,2]-5α-androstane]",54.1%,5.2%,,61.6%,,3.6%,,,95.1%,2.2%,,,92.8%,12.7%,,,69.4%,10.5%,38.2%,5.8%,
"Cc1c2c(nn1-c1ccc(C#N)cc1)C[C@@H]1CC[C@@H]3[C@H](CC[C@]4(C)C(=O)CC[C@@H]34)[C@@]1(C)C2 [5i, 1′-(4″-Cyanophenyl)-5′-methylpyrazolo[3′,4′:3,2]-5α-androst-17-one]",53.2%,39.4%,,56.2%,,70.0%,,,83.3%,79.9%,,,90.4%,87.9%,,,70.6%,59.7%,42.2%,36.4%,

# Reference: publication PMC6539495, “Anti-Cancer Activity of Novel Dihydrotestosterone-Derived Ring A-Condensed Pyrazoles on Androgen Non-Responsive Prostate Cancer Cell Lines” (International Journal of Molecular Sciences, 2019)
